Measured values published in US20210246159A1, “NOVEL FORM OF BARDOXOLONE METHYL” (Johnson Matthey Public Limited Company, priority 2020, published 2021).

Experiment: Storage stability of the crystalline form at 30° C. / 65% RH in a capped vial
Type: physicochemical
Excerpt: The crystalline formic acid solvate of bardoxolone methyl; more particularly, Form A, can be dried by any conventional methods known to one of ordinary skill in the art. In one embodiment, it is desirable to avoid extensive drying of the crystalline formic acid solvate of bardoxolone methyl; more particularly, Form A, to avoid the potential for desolvation. In one embodiment, it is desirable to store the crystalline formic acid solvate of bardoxolone methyl; more particularly, Form A, away from high heat and humidity. Form A remains stable at 30° C. at 65% RH for at least 5 days in a capped vial.

## COC(=O)[C@]12CCC(C)(C)C[C@H]1[C@H]1C(=O)C=C3[C@@]4(C)C=C(C#N)C(=O)C(C)(C)[C@@H]4CC[C@@]3(C)[C@]1(C)CC2 [Form A, di-formic acid solvate of bardoxolone methyl]
  time Form A remains stable: at least 5 days
